# Measurements from patent US9149465B2, “Isoxazolines as inhibitors of fatty acid amide hydrolase” (Infinity Pharmaceuticals, Inc., priority 2009, dated 2015).
# Molecular target: T1, human FAAH (Homo sapiens, UniProt O00519)
# T1 construct: host or cells: COS-7 cells, transient transfection; 13,000 g membrane fraction solubilised in 1% Triton X-100
# T1 sequence (O00519 1-579): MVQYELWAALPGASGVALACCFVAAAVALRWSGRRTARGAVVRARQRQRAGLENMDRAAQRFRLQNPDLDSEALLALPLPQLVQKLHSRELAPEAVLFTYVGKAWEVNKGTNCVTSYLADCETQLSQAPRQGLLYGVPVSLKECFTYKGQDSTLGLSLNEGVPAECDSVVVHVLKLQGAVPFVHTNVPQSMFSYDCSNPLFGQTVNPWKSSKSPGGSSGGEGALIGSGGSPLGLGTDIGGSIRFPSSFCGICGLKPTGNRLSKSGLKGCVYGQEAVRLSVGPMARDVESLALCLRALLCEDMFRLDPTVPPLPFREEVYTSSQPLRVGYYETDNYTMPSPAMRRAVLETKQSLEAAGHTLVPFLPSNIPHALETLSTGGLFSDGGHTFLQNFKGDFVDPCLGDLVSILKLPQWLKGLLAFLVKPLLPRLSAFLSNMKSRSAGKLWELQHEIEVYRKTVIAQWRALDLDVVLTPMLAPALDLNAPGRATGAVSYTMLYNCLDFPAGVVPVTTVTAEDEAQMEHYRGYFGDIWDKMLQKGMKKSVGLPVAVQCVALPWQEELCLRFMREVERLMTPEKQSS
# Assay: Inhibition of human FAAH (AMC arachidonoyl amide fluorescence assay)
# Type: biochemical
# Details: inhibitor preincubated 30 minutes at room temperature; 20 μM AMC arachidonoyl amide; 4 hours; read-out: Activity (Ki, inhibitors of human FAAH)
# How it was run: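 Solubilized membrane fraction from COS-7 cells transiently expressing human FAAH (0.05 mg/mL final) preincubated 30 min at room temperature with 3-fold serially diluted inhibitor, then reacted 4 h at room temperature with 20 μM AMC arachidonoyl amide. Stopped with α-ketoheterocycle; fluorescence read. Ki from single-site competitive fit, Km fixed at 12 μM.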
row,Ki [µM],Structure (SMILES)
1,≥ 1,CN(C1=NOC(c2ccc(OC(F)(F)F)cc2)C1)c1ccc(C(=O)O)cc1 (racemic) [I-255]
2,≤ 0.1,Fc1ccc(OC2=NOC(c3ccc(OC(F)(F)F)cc3)C2)cc1-c1nnco1 (racemic) [I-226]
3,0.1 to 1,CC1C(Br)=NOC1c1ccc(Oc2ccccc2)cc1 (stereo not drawn) [I-82]
4,≥ 1,FC(F)(F)Oc1ccc(C2CC(Sc3ccccc3)=NO2)cc1 (racemic) [I-248]
5,0.1 to 1,FC(F)(F)Oc1ccc(C2CC(Oc3ccc(-c4ccccc4)nc3)=NO2)cc1 (racemic) [I-86]
6,≤ 0.1,CC1C(Br)=NOC1c1ccc(Oc2ccccc2)cc1 (stereo not drawn) [I-78]
7,≤ 0.1,NC(=O)CCc1ccc(OC2=NOC(c3ccc(Oc4ccccc4)cc3)C2)cn1 (racemic) [I-100]
8,≤ 0.1,O=C(O)c1ccc(OC2=NO[C@@H](c3ccc(OC(F)(F)F)c(F)c3)C2)cn1 (racemic) [I-123]
9,≤ 0.1,Cc1cc(-c2ccc(OC3=NOC(c4ccc(OC(F)(F)F)cc4)C3)cn2)n(C)n1 (racemic) [I-190]
10,≥ 1,"COc1ccccc1C1CC(Br)=NO1 (single isomer, unassigned) [I-8]"
11,≤ 0.1,CSc1ccc(OC2=NOC(C)(c3ccc(OC(F)(F)F)cc3)C2)cn1 (racemic) [I-261]
12,0.1 to 1,O=S(=O)(c1ccc(OC2=NOC(c3ccc(OC(F)(F)F)cc3)C2)cn1)C1CCCC1 (racemic) [I-183]
13,0.1 to 1,CC(C)CS(=O)(=O)c1ccc(OC2=NOC(c3ccc(OC(F)(F)F)cc3)C2)cn1 (racemic) [I-184]
14,0.1 to 1,"BrC1=NOC(CCOc2ccccc2)C1 (single isomer, unassigned) [I-50]"
15,≤ 0.1,FC(F)(F)Oc1ccc(C2CC(Oc3cncc(-c4nnco4)c3)=NO2)cc1 (racemic) [I-230]
16,≤ 0.1,Cc1nnc(-c2cccc(OC3=NOC(c4ccc(OC(F)(F)F)cc4)C3)c2)o1 (racemic) [I-223]
17,≤ 0.1,COC(=O)c1cc(OC2=NOC(c3ccc(OC(F)(F)F)cc3)C2)ccn1 (racemic) [I-151]
18,≤ 0.1,"COC(=O)c1cncc(OC2=NOC(c3ccc(Oc4ccccc4)cc3)C2)c1 (single isomer, unassigned) [I-39]"
19,≤ 0.1,Cc1nnc(-c2cccc(OC3=NOC(C)(c4ccc(OC(F)(F)F)cc4)C3)c2)o1 (racemic) [I-222]
20,≥ 1,"c1ccc(Oc2ccc(C3CC(n4cncn4)=NO3)cc2)cc1 (single isomer, unassigned) [I-34]"
21,≤ 0.1,CC1(c2ccc(Oc3ccccc3)cc2)CC(Oc2cccnc2)=NO1 (racemic) [I-89]
22,0.1 to 1,"Clc1cccc(C2CC(Br)=NO2)c1 (single isomer, unassigned) [I-4]"
23,≥ 1,"Fc1ccc(OC2=NOC(c3ccc(Oc4ccccc4)cc3)C2)cc1 (single isomer, unassigned) [I-24]"
24,≤ 0.1,CNC(=O)c1ccc(OC2=NOC(C)(c3ccc(OC(F)(F)F)cc3)C2)cn1 (racemic) [I-114]
25,≤ 0.1,Cc1nnc(-c2ccc(OC3=NOC(c4ccc(C(F)(F)F)cc4)C3)cn2)o1 (racemic) [I-259]

# Continued, compound first:
row,Structure (SMILES),Ki [µM]
1,"FC(F)(F)Oc1ccc(C2CC(Br)=NO2)cc1 (racemic) [I-14, 3-bromo-5-(4-(trifluoromethoxy)phenyl)-4,5-dihydroisoxazole]",≤ 0.1
2,Cc1nnc(-c2ccc(OC3=NOC(c4ccc(Oc5ccccc5)cc4)C3)cc2)o1 (racemic) [I-159],≤ 0.1
3,Cn1nccc1-c1ccc(OC2=NOC(c3ccc(OC(F)(F)F)cc3)C2)cn1 (racemic) [I-189],≤ 0.1
4,c1ccc(Oc2ccc(C3CC(Oc4cnc5cc[nH]c5c4)=NO3)cc2)cc1 (racemic) [I-57],≤ 0.1
5,"Cc1ccc(OC2=NOC(c3ccc(Oc4ccccc4)cc3)C2)cc1F (single isomer, unassigned) [I-31]",≥ 1
6,CCS(=O)(=O)c1ccc(OC2=NOC(c3ccc(OC(F)(F)F)cc3)C2)cn1 (racemic) [I-182],≤ 0.1
7,FC1(F)Oc2ccc([C@H]3CC(Oc4cncnc4)=NO3)cc2O1 (racemic) [I-127],0.1 to 1
8,c1cncc(OC2=NOC(c3ccc(Oc4cccnc4)cc3)C2)c1 (racemic) [I-87],≤ 0.1
9,CCOC(=O)c1cccc(-c2ccc(OC3=NOC(c4ccc(OC(F)(F)F)cc4)C3)cn2)c1 (racemic) [I-84],0.1 to 1
10,"N#Cc1ccc(OC2=NOC(c3ccc(Oc4ccccc4)cc3)C2)cc1 (single isomer, unassigned) [I-27]",≤ 0.1
11,CC1(c2ccc(OC(F)(F)F)cc2)CC(Oc2ccc(-n3cccn3)nc2)=NO1 (racemic) [I-198],≤ 0.1
12,Cn1nc(C(F)(F)F)cc1-c1ccc(OC2=NOC(c3ccc(OC(F)(F)F)cc3)C2)cn1 (racemic) [I-191],≥ 1
13,C[C@]1(c2ccc(-c3ccccc3)cc2)CC(Br)=NO1 (racemic) [I-102],≤ 0.1
14,C#CCOc1ccc([C@H]2CC(Oc3ccc(C(=O)O)nc3)=NO2)cc1 (racemic) [I-145],≤ 0.1
15,CCCCc1ccc([C@H]2CC(Oc3cncnc3)=NO2)cc1 (racemic) [I-180],≤ 0.1
16,CSc1ccc(OC2=NOC(c3ccc(C(F)(F)F)cc3)C2)cn1 (racemic) [I-238],≤ 0.1
17,FC(F)(F)Oc1ccc(C2CC(Oc3cncc(Br)c3)=NO2)cc1 (racemic) [I-71],≤ 0.1
18,Fc1ccc(OC2=NOC(c3ccc(Oc4ccccc4)cc3)C2)cc1C(F)(F)F (racemic) [I-60],≥ 1

row,Structure (SMILES),Ki [µM]
1,FC(F)(F)Oc1ccc(C2CC(Oc3cccnc3)=NO2)cc1 (racemic) [I-70],≤ 0.1
2,Cc1nnc(-c2ccc(OC3=NOC(C)(c4ccc(OC(F)(F)F)cc4)C3)cn2)s1 (racemic) [I-158],≤ 0.1
3,CC1(c2ccc(OC(F)(F)F)cc2)CC(Oc2cccc(-c3nnco3)c2)=NO1 (racemic) [I-232],≤ 0.1
4,CC1(c2ccc(OC(F)(F)F)cc2)CC(Oc2ccc(-c3nccs3)nc2)=NO1 (racemic) [I-164],≤ 0.1
5,"BrC1=NO[C@H](Cc2ccccc2)C1 (single isomer, unassigned) [I-48]",≥ 1
6,COC(=O)CCc1ccc(OC2=NOC(c3ccc(Oc4ccccc4)cc3)C2)cn1 (racemic) [I-98],≤ 0.1
7,C#CCOc1ccc([C@H]2CC(Oc3ccc(C(=O)OC)nc3)=NO2)cc1 (racemic) [I-144],≤ 0.1
8,CS(=O)(=O)c1ncc(OC2=NOC(c3ccc(OC(F)(F)F)cc3)C2)cn1 (racemic) [I-133],≤ 0.1
9,O=S(=O)(c1ccc([C@H]2CC(Br)=NO2)cc1)N1CCOCC1 (racemic) [I-205],≤ 0.1
10,O=C(O)c1ccc(OC2=NOC(c3ccc(Oc4ccccc4)cc3)C2)cc1 (racemic) [I-147],≤ 0.1
11,Cc1nnc(-c2ccc(OC3=NOC(c4ccc(OC(F)(F)F)cc4)C3)cn2)o1 (racemic) [I-157],≤ 0.1
12,CC1(c2ccc(OC(F)(F)F)cc2)CC(Oc2cccnc2)=NO1 (racemic) [I-88],0.1 to 1
13,FC(F)(F)c1ccc(C2CC(Oc3ccc(Br)nc3)=NO2)cc1 (racemic) [I-216],0.1 to 1
14,"Cc1ccc(Oc2ccc(C3CC(Br)=NO3)cc2)nn1 (single isomer, unassigned) [I-18]",0.1 to 1
15,"NC(=O)c1cncc(OC2=NOC(c3ccc(Oc4ccccc4)cc3)C2)c1 (single isomer, unassigned) [I-47]",0.1 to 1
16,"BrC1=NOC(c2ccc(Oc3ccccc3)cc2)C1 (single isomer, unassigned) [I-10]",≤ 0.1
17,"c1ccc(NC2=NOC(c3ccc(Oc4ccccc4)cc3)C2)cc1 (single isomer, unassigned) [I-32]",≥ 1
